Measured values as given in ChEMBL document CHEMBL3632570, “Structure-Guided Design of Novel l-Cysteine Derivatives as Potent KSP Inhibitors” (ACS Med Chem Lett, 2015).
Calls of active or inactive are those of the source. The calls are words filed in the database; no cut-off is given here.

Legend:
[1] = biological target: Centromere-associated protein E (Homo sapiens) (UniProt Q02224); test: Inhibition of microtubule-stimulated CENP-E motor domain (1 to 339) (unknown origin) ATPase activity at 6.3 uM
Chain of Centromere-associated protein E (Homo sapiens) (Q02224 whole entry, the tested form may be a part): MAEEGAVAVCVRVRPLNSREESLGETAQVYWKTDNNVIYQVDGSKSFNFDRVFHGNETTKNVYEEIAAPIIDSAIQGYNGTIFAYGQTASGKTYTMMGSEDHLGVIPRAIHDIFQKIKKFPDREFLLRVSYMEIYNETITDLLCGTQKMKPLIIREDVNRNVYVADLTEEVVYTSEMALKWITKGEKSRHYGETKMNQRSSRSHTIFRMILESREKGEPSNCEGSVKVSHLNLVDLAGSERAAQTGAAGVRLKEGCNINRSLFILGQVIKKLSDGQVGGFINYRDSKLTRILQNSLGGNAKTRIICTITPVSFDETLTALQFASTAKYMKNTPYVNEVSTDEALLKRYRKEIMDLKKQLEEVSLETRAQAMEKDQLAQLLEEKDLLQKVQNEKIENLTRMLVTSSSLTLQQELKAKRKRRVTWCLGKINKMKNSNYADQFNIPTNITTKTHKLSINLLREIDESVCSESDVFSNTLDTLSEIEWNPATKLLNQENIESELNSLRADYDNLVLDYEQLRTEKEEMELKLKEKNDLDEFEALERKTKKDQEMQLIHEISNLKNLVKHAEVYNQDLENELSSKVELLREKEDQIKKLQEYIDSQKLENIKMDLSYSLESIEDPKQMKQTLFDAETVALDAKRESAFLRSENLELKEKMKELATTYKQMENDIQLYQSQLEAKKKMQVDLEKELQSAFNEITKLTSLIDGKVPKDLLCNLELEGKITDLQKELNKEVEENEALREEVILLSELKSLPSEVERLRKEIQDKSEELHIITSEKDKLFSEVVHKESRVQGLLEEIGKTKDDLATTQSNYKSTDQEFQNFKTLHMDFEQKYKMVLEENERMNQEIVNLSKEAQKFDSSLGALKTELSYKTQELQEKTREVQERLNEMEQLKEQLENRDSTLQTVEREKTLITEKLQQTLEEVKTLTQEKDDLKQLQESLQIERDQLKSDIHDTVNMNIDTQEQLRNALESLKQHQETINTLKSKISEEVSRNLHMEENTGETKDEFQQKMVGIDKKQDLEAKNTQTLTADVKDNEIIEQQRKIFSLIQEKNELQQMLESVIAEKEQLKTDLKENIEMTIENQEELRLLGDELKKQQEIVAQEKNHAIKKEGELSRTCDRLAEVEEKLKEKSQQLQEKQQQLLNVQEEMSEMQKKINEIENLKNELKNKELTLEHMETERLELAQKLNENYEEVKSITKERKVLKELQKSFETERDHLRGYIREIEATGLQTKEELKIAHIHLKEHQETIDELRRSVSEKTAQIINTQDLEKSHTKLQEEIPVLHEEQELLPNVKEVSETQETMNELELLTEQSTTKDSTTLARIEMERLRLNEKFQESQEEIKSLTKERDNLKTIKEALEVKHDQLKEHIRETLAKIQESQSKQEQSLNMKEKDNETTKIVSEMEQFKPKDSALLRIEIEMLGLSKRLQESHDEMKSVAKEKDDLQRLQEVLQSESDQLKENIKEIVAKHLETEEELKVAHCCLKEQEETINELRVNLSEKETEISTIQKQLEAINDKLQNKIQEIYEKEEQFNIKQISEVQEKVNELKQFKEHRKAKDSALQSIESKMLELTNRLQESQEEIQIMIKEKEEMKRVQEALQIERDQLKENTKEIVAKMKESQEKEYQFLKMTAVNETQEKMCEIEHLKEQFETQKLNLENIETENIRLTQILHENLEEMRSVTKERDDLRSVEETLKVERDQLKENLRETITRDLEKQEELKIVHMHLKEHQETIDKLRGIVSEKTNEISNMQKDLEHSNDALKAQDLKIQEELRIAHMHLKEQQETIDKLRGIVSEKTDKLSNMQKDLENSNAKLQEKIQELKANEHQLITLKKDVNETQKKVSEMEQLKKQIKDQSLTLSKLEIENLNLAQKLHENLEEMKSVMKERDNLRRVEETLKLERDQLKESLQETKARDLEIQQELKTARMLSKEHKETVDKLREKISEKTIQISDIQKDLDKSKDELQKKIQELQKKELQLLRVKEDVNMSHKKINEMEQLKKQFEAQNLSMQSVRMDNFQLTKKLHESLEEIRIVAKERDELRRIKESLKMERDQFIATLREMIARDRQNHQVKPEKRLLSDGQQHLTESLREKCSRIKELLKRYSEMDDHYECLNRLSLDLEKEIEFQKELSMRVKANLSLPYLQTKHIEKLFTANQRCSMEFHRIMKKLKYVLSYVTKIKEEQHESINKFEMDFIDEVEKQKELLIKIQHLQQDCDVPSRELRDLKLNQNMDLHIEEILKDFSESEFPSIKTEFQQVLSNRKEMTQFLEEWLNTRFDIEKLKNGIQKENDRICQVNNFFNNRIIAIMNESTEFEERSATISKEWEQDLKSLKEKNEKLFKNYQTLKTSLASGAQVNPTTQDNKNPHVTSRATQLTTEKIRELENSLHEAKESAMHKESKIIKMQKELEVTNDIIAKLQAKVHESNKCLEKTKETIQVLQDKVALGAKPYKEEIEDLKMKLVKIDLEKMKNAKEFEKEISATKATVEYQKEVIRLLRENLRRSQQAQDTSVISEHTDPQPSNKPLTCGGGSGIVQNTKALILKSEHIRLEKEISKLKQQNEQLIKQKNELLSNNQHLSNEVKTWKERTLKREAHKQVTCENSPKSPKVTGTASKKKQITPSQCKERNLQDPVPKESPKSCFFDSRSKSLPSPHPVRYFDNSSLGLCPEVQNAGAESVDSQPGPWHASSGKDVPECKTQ

[2] = biological target: T1, Kinesin-like protein KIF23 (Homo sapiens) (UniProt Q02241); test: Inhibition of microtubule-stimulated MKLP1 motor domain (1 to 446) (unknown origin) ATPase activity at 6.3 uM
T1 sequence (whole entry): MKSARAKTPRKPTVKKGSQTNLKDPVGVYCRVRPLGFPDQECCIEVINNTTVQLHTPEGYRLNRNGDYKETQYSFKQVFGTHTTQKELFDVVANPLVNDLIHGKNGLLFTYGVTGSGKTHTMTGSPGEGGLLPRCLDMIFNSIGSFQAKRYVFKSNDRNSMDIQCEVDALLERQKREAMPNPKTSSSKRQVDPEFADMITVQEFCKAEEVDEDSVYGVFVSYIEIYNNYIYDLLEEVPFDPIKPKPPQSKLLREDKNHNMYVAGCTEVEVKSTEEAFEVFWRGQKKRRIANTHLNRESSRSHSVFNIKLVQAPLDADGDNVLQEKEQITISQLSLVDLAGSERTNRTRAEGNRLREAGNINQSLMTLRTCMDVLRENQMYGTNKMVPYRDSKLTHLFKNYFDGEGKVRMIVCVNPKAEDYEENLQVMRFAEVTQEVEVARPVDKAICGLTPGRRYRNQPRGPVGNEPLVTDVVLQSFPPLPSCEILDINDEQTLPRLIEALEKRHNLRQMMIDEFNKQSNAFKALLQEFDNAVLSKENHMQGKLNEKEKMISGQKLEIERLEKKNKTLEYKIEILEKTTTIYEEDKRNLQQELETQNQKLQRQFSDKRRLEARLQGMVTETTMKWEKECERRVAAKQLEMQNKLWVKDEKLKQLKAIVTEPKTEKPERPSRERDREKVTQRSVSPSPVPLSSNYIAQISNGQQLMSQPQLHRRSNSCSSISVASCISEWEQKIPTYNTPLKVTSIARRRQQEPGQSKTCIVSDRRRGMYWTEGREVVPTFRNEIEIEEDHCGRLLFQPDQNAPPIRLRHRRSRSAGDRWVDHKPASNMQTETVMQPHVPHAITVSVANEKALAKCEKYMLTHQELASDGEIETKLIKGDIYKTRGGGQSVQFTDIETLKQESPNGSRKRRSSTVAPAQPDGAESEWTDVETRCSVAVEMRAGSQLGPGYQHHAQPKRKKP

[3] = biological target: T2, Kinesin-like protein KIF11 (Homo sapiens) (UniProt P52732)
T2 sequence (whole entry): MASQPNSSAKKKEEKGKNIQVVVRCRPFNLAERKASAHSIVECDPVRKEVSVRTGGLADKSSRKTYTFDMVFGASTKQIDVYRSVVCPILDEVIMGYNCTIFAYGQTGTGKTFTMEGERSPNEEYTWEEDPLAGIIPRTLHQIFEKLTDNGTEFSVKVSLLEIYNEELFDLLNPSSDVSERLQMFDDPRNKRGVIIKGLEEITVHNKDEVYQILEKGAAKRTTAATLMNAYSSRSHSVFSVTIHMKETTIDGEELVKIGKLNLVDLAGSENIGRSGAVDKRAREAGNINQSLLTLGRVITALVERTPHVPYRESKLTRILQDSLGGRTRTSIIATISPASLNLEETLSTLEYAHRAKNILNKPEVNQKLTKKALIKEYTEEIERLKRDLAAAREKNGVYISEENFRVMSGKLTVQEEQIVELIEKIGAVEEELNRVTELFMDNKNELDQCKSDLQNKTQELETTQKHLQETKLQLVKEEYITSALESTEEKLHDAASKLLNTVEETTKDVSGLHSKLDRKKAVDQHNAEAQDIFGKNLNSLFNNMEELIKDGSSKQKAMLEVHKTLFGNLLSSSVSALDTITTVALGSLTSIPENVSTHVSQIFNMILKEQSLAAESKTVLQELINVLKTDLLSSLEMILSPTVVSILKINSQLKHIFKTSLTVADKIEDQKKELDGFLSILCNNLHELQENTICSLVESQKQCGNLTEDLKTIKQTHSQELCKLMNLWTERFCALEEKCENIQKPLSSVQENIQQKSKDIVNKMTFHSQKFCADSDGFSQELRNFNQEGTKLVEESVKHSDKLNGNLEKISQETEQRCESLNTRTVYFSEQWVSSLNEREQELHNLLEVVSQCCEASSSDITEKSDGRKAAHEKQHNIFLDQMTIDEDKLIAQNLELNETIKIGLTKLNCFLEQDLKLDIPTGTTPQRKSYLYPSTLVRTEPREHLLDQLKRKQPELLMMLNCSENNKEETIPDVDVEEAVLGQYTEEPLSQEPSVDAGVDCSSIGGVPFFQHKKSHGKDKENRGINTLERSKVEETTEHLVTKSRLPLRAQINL
Description: Binding affinity to KSP motor domain (unknown origin) assessed as change in melting temperature at 100 uM by differential scanning fluorimetry in presence of 1 mM ATP

[4] = biological target: T3, Kinesin-like protein KIF22 (Homo sapiens) (UniProt Q14807); test: Inhibition of microtubule-stimulated Kid motor domain (1 to 336) (unknown origin) ATPase activity at 6.3 uM
T3 sequence (whole entry): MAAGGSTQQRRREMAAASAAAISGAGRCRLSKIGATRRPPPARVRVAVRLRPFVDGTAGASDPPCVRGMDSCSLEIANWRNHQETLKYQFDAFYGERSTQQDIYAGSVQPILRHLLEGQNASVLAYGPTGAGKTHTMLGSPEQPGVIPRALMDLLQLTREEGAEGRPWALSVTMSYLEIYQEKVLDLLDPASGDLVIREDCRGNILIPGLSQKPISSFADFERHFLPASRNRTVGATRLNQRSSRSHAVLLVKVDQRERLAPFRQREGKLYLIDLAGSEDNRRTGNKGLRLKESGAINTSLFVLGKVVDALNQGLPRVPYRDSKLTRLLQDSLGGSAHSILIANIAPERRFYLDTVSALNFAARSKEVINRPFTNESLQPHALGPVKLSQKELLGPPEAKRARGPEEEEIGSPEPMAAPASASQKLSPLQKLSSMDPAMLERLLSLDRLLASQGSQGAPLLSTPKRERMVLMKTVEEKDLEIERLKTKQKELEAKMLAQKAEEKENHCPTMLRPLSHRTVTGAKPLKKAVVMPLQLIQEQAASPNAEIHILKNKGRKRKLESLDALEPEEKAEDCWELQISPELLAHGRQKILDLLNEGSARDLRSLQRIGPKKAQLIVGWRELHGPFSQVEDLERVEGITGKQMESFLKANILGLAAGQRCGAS

[5] = tested on: Mus musculus; test: Toxicity in athymic nude BALB/cAJcL mouse xenografted with HCT116 cells assessed as mortality at 75 mg/kg, iv administered on days 1,3,5,8,10 and 12; type: organism-based, HCT-116; settings: in vivo
[6] = tested on: HeLa; test: Cell cycle arrest at mitotic phase in human HeLa cells assessed as mitotic index after 6 hrs; type: functional
[7] = tested on: HeLa; test: Cell cycle arrest at mitotic phase in human HeLa cells assessed as formation of monopolar spindles at 40 nM after 6 hrs by DAPI staining-based microscopic analysis; type: functional

SMILES	inhibition [1]	inhibition [2]	ΔTm [3]	inhibition [4]	Activity [5]	MI50 [6]	Activity [7]
COc1ccc(C2(SC[C@H](N)C(=O)O)c3ccccc3CCc3ccccc32)cc1	inactive	inactive	12 °C	inactive			
N[C@@H](CSC1(c2ccc(C(F)(F)F)cc2)c2ccccc2CCc2ccccc21)C(=O)O	inactive	inactive		inactive	Non-toxic	14 nM	Active
